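Interpolation was linear, between the two tested concentrations surrounding the appropriate level; five concentrations were tested over 48 hours in 96-well plates. Abbreviation: GI50, concentration required for 50% inhibition of growth. The concentration for full growth arrest is given as TGI.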
Tests used:
Experiment in all cases: growth of human tumour cells (NCI), 48 h
786-0 renal = system: 786-0 renal
A498 renal = system: A498 renal
A549 NSCLC = system: A549 NSCLC
ACHN renal = system: ACHN renal
BT-549 breast = system: BT-549 breast
CAKI-1 renal = system: CAKI-1 renal
CCRF-CEM leukemia = system: CCRF-CEM leukemia
COLO 205 colon = system: COLO 205 colon
DU-145 prostate = system: DU-145 prostate
EKVX NSCLC = system: EKVX NSCLC
HCC-2998 colon = system: HCC-2998 colon
HCT-116 colon = system: HCT-116 colon
HCT-15 colon = system: HCT-15 colon
HL-60(TB) leukemia = system: HL-60(TB) leukemia
HOP-62 NSCLC = system: HOP-62 NSCLC
HOP-92 NSCLC = system: HOP-92 NSCLC
HS 578T breast = system: HS 578T breast
HT29 colon = system: HT29 colon
IGROV1 ovarian = system: IGROV1 ovarian
K-562 leukemia = system: K-562 leukemia
KM12 colon = system: KM12 colon
LOX IMVI melanoma = system: LOX IMVI melanoma
M14 melanoma = system: M14 melanoma
MALME-3M melanoma = system: MALME-3M melanoma
MCF7 breast = system: MCF7 breast
MDA-MB-231 breast = system: MDA-MB-231 breast
MDA-MB-435 = system: MDA-MB-435
MDA-MB-468 breast = system: MDA-MB-468 breast
MOLT-4 leukemia = system: MOLT-4 leukemia
NCI-H226 lung = system: NCI-H226 lung
NCI-H23 lung = system: NCI-H23 lung
NCI-H460 lung = system: NCI-H460 lung
NCI-H522 lung = system: NCI-H522 lung
NCI/ADR-RES ovarian = system: NCI/ADR-RES ovarian
OVCAR-3 ovarian = system: OVCAR-3 ovarian
OVCAR-4 ovarian = system: OVCAR-4 ovarian
OVCAR-5 ovarian = system: OVCAR-5 ovarian
OVCAR-8 ovarian = system: OVCAR-8 ovarian
PC-3 prostate = system: PC-3 prostate
RPMI-8226 leukemia = system: RPMI-8226 leukemia
RXF 393 renal = system: RXF 393 renal
SF-268 CNS = system: SF-268 CNS
SF-295 CNS = system: SF-295 CNS
SF-539 CNS = system: SF-539 CNS
SK-MEL-2 melanoma = system: SK-MEL-2 melanoma
SK-MEL-28 melanoma = system: SK-MEL-28 melanoma
SK-MEL-5 melanoma = system: SK-MEL-5 melanoma
SK-OV-3 ovarian = system: SK-OV-3 ovarian
SN12C renal = system: SN12C renal
SNB-19 CNS = system: SNB-19 CNS
SNB-75 CNS = system: SNB-75 CNS
SR leukemia = system: SR leukemia
SW-620 colon = system: SW-620 colon
T-47D breast = system: T-47D breast
TK-10 renal = system: TK-10 renal
U251 CNS = system: U251 CNS
UACC-257 melanoma = system: UACC-257 melanoma
UACC-62 melanoma = system: UACC-62 melanoma
UO-31 renal = system: UO-31 renal

With `COc1ccc2[nH]c(O)c(N=NC(=O)COc3ccc(NC(=O)Nc4ccccc4)cc3)c2c1` the GI50 (786-0 renal) was 13.6 µM, the TGI (786-0 renal) was 30.6 µM and the GI50 (A498 renal) was 18.3 µM. The TGI (A498 renal) was 38.4 µM, the GI50 (A549 NSCLC) was 21.9 µM and the TGI (A549 NSCLC) was 58.4 µM. The GI50 (ACHN renal) was 39.5 µM, the TGI (ACHN renal) was greater than 100 µM and the TGI (BT-549 breast) was 20.2 µM. For the same compound, the GI50 (CAKI-1 renal) was 24.3 µM, the TGI (CAKI-1 renal) was 70.1 µM and the GI50 (CCRF-CEM leukemia) was 33.1 µM. It also gave a TGI (CCRF-CEM leukemia) greater than 100 µM, a GI50 (COLO 205 colon) of 16.5 µM and a TGI (COLO 205 colon) of 33.5 µM. It also gave a GI50 (DU-145 prostate) of 30.9 µM, a TGI (DU-145 prostate) greater than 100 µM and a GI50 (EKVX NSCLC) of 35.3 µM. The TGI (EKVX NSCLC) was greater than 100 µM, the GI50 (HCC-2998 colon) was 17.5 µM and the TGI (HCC-2998 colon) was 42.8 µM. For the same compound, the GI50 (HCT-116 colon) was 2.91 µM, the TGI (HCT-116 colon) was 27.5 µM and the GI50 (HCT-15 colon) was greater than 100 µM. It also gave a TGI (HCT-15 colon) greater than 100 µM, a GI50 (HL-60(TB) leukemia) of 29.6 µM and a TGI (HL-60(TB) leukemia) greater than 100 µM. The GI50 (HOP-62 NSCLC) was 18.5 µM, the TGI (HOP-62 NSCLC) was 34.6 µM and the GI50 (HOP-92 NSCLC) was 7.82 µM. The TGI (HOP-92 NSCLC) was 25.4 µM, the GI50 (HS 578T breast) was 17.3 µM and the TGI (HS 578T breast) was 75.6 µM. It also gave a GI50 (HT29 colon) of 26 µM, a TGI (HT29 colon) greater than 100 µM and a GI50 (IGROV1 ovarian) of 22.5 µM. The TGI (IGROV1 ovarian) was 59.2 µM, the GI50 (K-562 leukemia) was 26.7 µM and the TGI (K-562 leukemia) was greater than 100 µM. The GI50 (KM12 colon) was 0.684 µM, the TGI (KM12 colon) was 21 µM and the GI50 (LOX IMVI melanoma) was 17 µM. The TGI (LOX IMVI melanoma) was 36.8 µM, the GI50 (M14 melanoma) was 2.9 µM and the TGI (M14 melanoma) was 21.1 µM. For the same compound, the GI50 (MALME-3M melanoma) was 14.4 µM, the TGI (MALME-3M melanoma) was 28.4 µM and the GI50 (MCF7 breast) was 17.4 µM. The TGI (MCF7 breast) was 40.2 µM, the GI50 (MDA-MB-231 breast) was 14.3 µM and the TGI (MDA-MB-231 breast) was 28.6 µM. The GI50 (MDA-MB-435) was 16.3 µM, the TGI (MDA-MB-435) was 35.4 µM and the GI50 (MDA-MB-468 breast) was 11.1 µM. For the same compound, the TGI (MDA-MB-468 breast) was 26.2 µM, the GI50 (MOLT-4 leukemia) was 23.7 µM and the TGI (MOLT-4 leukemia) was greater than 100 µM. The GI50 (NCI-H226 lung) was 15 µM, the TGI (NCI-H226 lung) was 34.7 µM and the GI50 (NCI-H23 lung) was 15.8 µM. It also gave a TGI (NCI-H23 lung) of 32.7 µM, a GI50 (NCI-H460 lung) of 15.7 µM and a TGI (NCI-H460 lung) of 41.2 µM. The GI50 (NCI-H522 lung) was 15.3 µM, the TGI (NCI-H522 lung) was 38.5 µM and the GI50 (NCI/ADR-RES ovarian) was greater than 100 µM. It also gave a TGI (NCI/ADR-RES ovarian) greater than 100 µM, a GI50 (OVCAR-3 ovarian) of 17.4 µM and a TGI (OVCAR-3 ovarian) of 35.5 µM. For the same compound, the GI50 (OVCAR-4 ovarian) was 11.1 µM, the TGI (OVCAR-4 ovarian) was 33 µM and the GI50 (OVCAR-5 ovarian) was 18.3 µM. For the same compound, the TGI (OVCAR-5 ovarian) was 45.4 µM, the GI50 (OVCAR-8 ovarian) was 9.79 µM and the TGI (OVCAR-8 ovarian) was 27.5 µM. For the same compound, the GI50 (PC-3 prostate) was 14.5 µM, the TGI (PC-3 prostate) was 36.3 µM and the GI50 (RPMI-8226 leukemia) was 58 µM. For the same compound, the TGI (RPMI-8226 leukemia) was greater than 100 µM, the GI50 (RXF 393 renal) was 13.6 µM and the TGI (RXF 393 renal) was 32.5 µM. The GI50 (SF-268 CNS) was 14.3 µM, the TGI (SF-268 CNS) was 34.3 µM and the GI50 (SF-295 CNS) was 18.1 µM. The TGI (SF-295 CNS) was 39.8 µM, the GI50 (SF-539 CNS) was 14.7 µM and the TGI (SF-539 CNS) was 28.2 µM. The GI50 (SK-MEL-2 melanoma) was 16.4 µM, the TGI (SK-MEL-2 melanoma) was 33.4 µM and the GI50 (SK-MEL-28 melanoma) was 16.6 µM. It also gave a TGI (SK-MEL-28 melanoma) of 30.7 µM, a GI50 (SK-MEL-5 melanoma) of 16.9 µM and a TGI (SK-MEL-5 melanoma) of 36.5 µM. For the same compound, the GI50 (SK-OV-3 ovarian) was 19.6 µM, the TGI (SK-OV-3 ovarian) was 44 µM and the GI50 (SN12C renal) was 16.4 µM. For the same compound, the TGI (SN12C renal) was 31.7 µM, the GI50 (SNB-19 CNS) was 16.6 µM and the TGI (SNB-19 CNS) was 35.4 µM. The GI50 (SNB-75 CNS) was 10.7 µM, the TGI (SNB-75 CNS) was 27.3 µM and the GI50 (SR leukemia) was 22.9 µM. It also gave a TGI (SR leukemia) greater than 100 µM, a GI50 (SW-620 colon) of 15.2 µM and a TGI (SW-620 colon) of 43.3 µM. The GI50 (T-47D breast) was 15.4 µM, the TGI (T-47D breast) was 31.2 µM and the GI50 (TK-10 renal) was 46.2 µM. The TGI (TK-10 renal) was greater than 100 µM, the GI50 (U251 CNS) was 15.7 µM and the TGI (U251 CNS) was 37.6 µM. The GI50 (UACC-257 melanoma) was 19.5 µM, the TGI (UACC-257 melanoma) was 41.5 µM and the GI50 (UACC-62 melanoma) was 16.3 µM. It also gave a TGI (UACC-62 melanoma) of 30.8 µM, a GI50 (UO-31 renal) greater than 100 µM and a TGI (UO-31 renal) greater than 100 µM.

— PubChem BioAssay (NCI)
